The record followed here is patent US20040220094A1, “Inverse agonist and agonist peptides that stimulate/inhibit hair growth” (priority 2003, published 2004).

Non-standard residues stand in square brackets, D forms with d. Residues, ends and D or L forms follow the SMILES beside them. No end group written: not given here. *: point of attachment. Hydrocinnamoyl = O=C(CCc1ccccc1)*; Nle = CCCC[C@H](N)C(=O)O

The target in assay [1] is T1, PTH1R receptor (Homo sapiens, UniProt Q03431).
T1 sequence (Q03431 27-593): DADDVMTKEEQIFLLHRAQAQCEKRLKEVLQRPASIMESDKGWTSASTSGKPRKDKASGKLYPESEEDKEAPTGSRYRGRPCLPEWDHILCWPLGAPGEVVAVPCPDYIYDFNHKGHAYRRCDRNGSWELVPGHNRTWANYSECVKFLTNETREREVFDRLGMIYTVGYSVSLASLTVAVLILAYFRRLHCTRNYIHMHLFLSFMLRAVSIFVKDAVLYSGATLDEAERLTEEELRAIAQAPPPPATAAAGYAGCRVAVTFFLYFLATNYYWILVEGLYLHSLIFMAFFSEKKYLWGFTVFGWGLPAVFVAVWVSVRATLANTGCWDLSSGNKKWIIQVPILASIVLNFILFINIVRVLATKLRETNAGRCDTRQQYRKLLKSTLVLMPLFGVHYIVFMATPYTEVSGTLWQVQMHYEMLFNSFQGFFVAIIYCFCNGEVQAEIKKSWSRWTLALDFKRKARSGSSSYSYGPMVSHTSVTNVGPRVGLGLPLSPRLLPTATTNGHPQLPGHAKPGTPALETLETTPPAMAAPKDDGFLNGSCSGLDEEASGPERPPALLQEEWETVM
The assay can be described thus: potency of inverse agonist peptides (assay not specified).

Assay [2] has as its target T1, PTH1R receptor. The assay is described as follows: bone-based assays. The class given is binding. To be noted: bon-based assay.
Assay [3] has as its target T1, PTH1R receptor. The assay is described as follows: kidney-based assays. In kind it is binding. To be noted: kidney-based assay.
Assay [4] has as its target T2, Type I PTH/PTHrP receptor (PTH1R receptor).
T2 chain: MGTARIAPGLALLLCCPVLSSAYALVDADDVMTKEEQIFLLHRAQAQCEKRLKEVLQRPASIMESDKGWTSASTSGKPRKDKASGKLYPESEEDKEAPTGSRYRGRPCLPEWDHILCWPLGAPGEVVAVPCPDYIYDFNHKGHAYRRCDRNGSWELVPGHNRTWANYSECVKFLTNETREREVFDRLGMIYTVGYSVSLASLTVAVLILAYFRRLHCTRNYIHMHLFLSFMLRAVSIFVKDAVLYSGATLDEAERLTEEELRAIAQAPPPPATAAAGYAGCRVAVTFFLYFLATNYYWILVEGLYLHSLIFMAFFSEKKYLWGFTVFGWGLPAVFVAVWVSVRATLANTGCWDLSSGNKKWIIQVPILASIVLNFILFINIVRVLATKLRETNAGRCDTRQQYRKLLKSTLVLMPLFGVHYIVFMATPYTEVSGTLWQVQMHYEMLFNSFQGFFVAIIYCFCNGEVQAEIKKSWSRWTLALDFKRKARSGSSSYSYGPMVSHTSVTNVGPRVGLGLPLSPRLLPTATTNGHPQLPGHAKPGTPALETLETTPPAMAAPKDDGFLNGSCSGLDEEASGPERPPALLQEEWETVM
The assay is described as follows: bone-based assay.

Assay [5] deals with T2, Type I PTH/PTHrP receptor (PTH1R …). The assay is described as follows: kidney-based assay.

On to “Leu-Leu-His-Asp-Leu-D-Trp-Lys(cyclization)-Ser-Ile-Gln-Asp(cyclization)-Leu-Arg-Arg-Arg-Phe-Phe-Leu-His-His-Leu-Ile-Ala-Glu-Ile-His-Thr-Ala-NH2”, for which the potency result at PTH1R receptor [1] is listed as “increased potency”.

Take “Leu-Leu-His-Asn-Leu-Gly-Lys-Ser-Ile-Gln-Asp-Leu-Arg-Arg-Arg-Phe-Phe-Leu-His-His-Leu-Ile-Ala-Glu-Ile-His-Thr-Ala-NH2 (LLHNLGKSIQDLRRRFFLHHLIAEIHTA-NH2)”: the “fold more potent than PTHrP 7-34” value with PTH1R receptor [1] (relative to PTHrP 7-34) was “(which is 23 fold more potent than PTHrP 7-34);”.

One may read the Ki as the dissociation constant of the complex between target and ligand, obtained from inhibition or displacement. A low value points to tighter binding. Regarding `CCCC[C@H](NC(=O)[C@H](CO)NC(=O)[C@H](CO)NC(=O)[C@H](CC(C)C)NC(=O)[C@H](Cc1c[nH]cn1)NC(=O)[C@H](CCCCNC(=O)CCc1ccccc1)NC(=O)CNC(=O)[C@H](CC(C)C)NC(=O)[C@H](CC(N)=O)NC(=O)[C@H](Cc1c[nH]cn1)NC(=O)[C@H](CCCC)NC(=O)[C@@H](N)Cc1ccccc1)C(=O)N[C@@H](CCC(=O)O)C(=O)N[C@@H](CCCNC(=N)N)C(=O)N[C@H](C(=O)N[C@@H](CCC(=O)O)C(=O)N[C@@H](Cc1c[nH]c2ccccc12)C(=O)N[C@@H](CC(C)C)C(=O)N[C@@H](CCCNC(=N)N)C(=O)N[C@@H](CCCCN)C(=O)N[C@@H](CCCCN)C(=O)N[C@@H](CC(C)C)C(=O)N[C@@H](CCC(N)=O)C(=O)N[C@@H](CC(=O)O)C(=O)N[C@H](C(=O)N[C@@H](Cc1c[nH]cn1)C(=O)N[C@@H](CC(N)=O)C(=O)N[C@@H](Cc1ccc(O)cc1)C(=O)O)C(C)C)C(C)C` (H-F[Nle]HNLGK(Hydrocinnamoyl)HLSS[Nle]ERVEWLRKKLQDVHNY-OH; N-terminus and C-terminus assumed), the Ki at PTH1R receptor [2] came to 3.5 nM; on PTH1R receptor [3], 73 nM. Besides, the Kd was found to be 9 nM on PTH1R receptor [2] (read-out: Kbinding) and 4 nM at PTH1R receptor [3] (read-out: Kbinding).

B1: Phe-Nle-His-Asn-Leu-Gly-Lys-(epsilon-3-phenylpropanoyl)-His-Leu-Ser-Ser-Nle-Glu-Arg-Val-Glu-Trp-Leu-Arg-Lys-Lys-Leu-Gln-Asp-Val-His-Asn-Tyr (peptide)
peptide: FXHNLGKHLSSXERVEWLRKKLQDVHNY
modifications: Nle (norleucine) at peptide positions 2 and 12 (written X in letters); Lys at peptide position 7 carries epsilon-3-phenylpropanoyl
On to B1, for which the Ki was 3.5 nM in assay [4] and 73 nM in assay [5].
